Source: US9499490B2, “Fluorophenyl pyrazol compounds” (Eli Lilly and Company, priority 2013, dated 2016)
pIC50: −log10 of the molar value.

What was measured:
obese DIO mice = assay: Therapeutic weight loss effect in high fat diet induced obese (DIO) mice; assay type: in vivo, mouse; conditions: oral 30 mg/kg twice a day
Experimental: To determine the therapeutic weight loss effects and improvement of metabolic parameters, compounds from the invention are tested in the high fat diet (HFD) feeding induced obese mouse model (DIO mice). In this model, C57/B16J male mouse is fed with the 60% HFD (D12492i, Research Diets) for 16˜28 weeks to establish obesity with body weight reaching around 50 g. The mice will gradually increase the body weight to about 50 g and maintain that weight in this obese state. Test compound (via the vehicle of 0.5% HEC plus 0.25% Tween-80 at 5 mL/kg) is administered orally to the obese DIO mice once or twice daily throughout the study duration. The dose-dependent weight loss of obese DIO mice for Example 1 of the oral treatment at 30 mg/kg twice a day is about 6%, 10%, and 14% weight loss compared to the vehicle group at day 7, day 14, and day 21 respectively. The data support that the compound of Example 1 is associated with desired weight loss and offers therapeutic weight loss effect.

human MetAP2 = target: T1, human MetAP2 (Homo sapiens, UniProt P50579); assay: Enzymatic activity assay of human MetAP2 (LC/MS detection of product peptide); assay type: biochemical; conditions: full length human MetAP2, substrate 150 μM, 40 min; read-out: IC50 value for hMetAP2
T1 construct: Full length MetAP2 (human and mouse) and MetAP1 (human) proteins are generated from Sf9 cells; made in house; host or cells: Sf9 insect cells
T1 sequence (P50579 whole entry): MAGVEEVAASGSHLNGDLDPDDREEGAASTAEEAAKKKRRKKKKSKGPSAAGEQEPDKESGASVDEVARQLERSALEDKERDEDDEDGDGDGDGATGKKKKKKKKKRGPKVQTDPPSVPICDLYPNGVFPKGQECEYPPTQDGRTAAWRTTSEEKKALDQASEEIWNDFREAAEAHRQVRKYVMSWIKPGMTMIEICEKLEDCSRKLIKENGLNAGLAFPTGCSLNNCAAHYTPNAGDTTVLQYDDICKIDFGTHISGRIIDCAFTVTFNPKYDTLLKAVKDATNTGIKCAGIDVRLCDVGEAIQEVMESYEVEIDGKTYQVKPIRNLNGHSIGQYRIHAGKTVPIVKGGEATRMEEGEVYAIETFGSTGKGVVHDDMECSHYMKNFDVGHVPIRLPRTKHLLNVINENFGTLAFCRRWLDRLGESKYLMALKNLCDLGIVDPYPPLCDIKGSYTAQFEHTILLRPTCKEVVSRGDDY
Experimental: (§1) Full length MetAP2 (human and mouse) and MetAP1 (human) proteins are generated from Sf9 cells using procedure similar to that described in Biochemistry 2003, 42, 5035-5042. MetAP2 and MetAP1 are purified in the presence of 5 mM MnCl2 and 2 mM CoCl2 respectively, and stored at −78° C. before use.
(§2) Compound inhibition of the catalytic activity of human and mouse MetAP2 in the present invention is monitored by the formation of the product peptide (Gly-Lys-Val-Lys-Val-Gly-Val-Asn-Gly) from the substrate peptide (Met-Gly-Lys-Val-Lys-Val-Gly-Val-Asn-Gly) via LC/MS detection. The reaction is typically conducted by incubating the enzyme, testing compound and substrate (150 μM) in a 100 μl assay buffer (50 mM HEPES, 100 mM NaCl, 50 mg/mL BSA, 0.17 mM Triton X-100 at pH 7.5) for 40 min. After the reaction is stopped by the addition of 200 μl acetonitrile, the levels of product and remaining substrate are quantified on a mass spectrometer. The activity of human MetAP1 is monitored by the formation of the fluorescent product rhodmine-methionine from the substrate methionine-rhodamine-methionine on a spectrophotometer with the excitation light at 460 nm and emission light at 535 nm. The reaction is typically conducted by incubating the enzyme, testing compound and substrate (50 μM) in a 100 μl assay buffer (50 mM HEPES, 100 mM NaCl, 0.1% BSA, 0.05% Tween-20, 50 μM CoCl2) for 60 min. […]

human MetAP1 = target: T2, human MetAP1 (Homo sapiens, UniProt P53582); assay: Enzymatic activity assay of human MetAP1 (fluorescent rhodamine substrate); assay type: biochemical; conditions: full length human MetAP1, substrate 50 μM, 60 min
T2 construct: Full length MetAP2 (human and mouse) and MetAP1 (human) proteins are generated from Sf9 cells; made in house; host or cells: Sf9 insect cells
Experimental: as §1, §2

mouse MetAP2 = target: T3, mouse MetAP2 (Mus musculus, UniProt O08663); assay: Enzymatic activity assay of mouse MetAP2 (LC/MS detection of product peptide); assay type: biochemical; conditions: full length mouse MetAP2, substrate 150 μM, 40 min; read-out: IC50 value for mMetAP2
T3 construct: Full length MetAP2 (human and mouse) and MetAP1 (human) proteins are generated from Sf9 cells; made in house; host or cells: Sf9 insect cells
T3 sequence (O08663 whole entry): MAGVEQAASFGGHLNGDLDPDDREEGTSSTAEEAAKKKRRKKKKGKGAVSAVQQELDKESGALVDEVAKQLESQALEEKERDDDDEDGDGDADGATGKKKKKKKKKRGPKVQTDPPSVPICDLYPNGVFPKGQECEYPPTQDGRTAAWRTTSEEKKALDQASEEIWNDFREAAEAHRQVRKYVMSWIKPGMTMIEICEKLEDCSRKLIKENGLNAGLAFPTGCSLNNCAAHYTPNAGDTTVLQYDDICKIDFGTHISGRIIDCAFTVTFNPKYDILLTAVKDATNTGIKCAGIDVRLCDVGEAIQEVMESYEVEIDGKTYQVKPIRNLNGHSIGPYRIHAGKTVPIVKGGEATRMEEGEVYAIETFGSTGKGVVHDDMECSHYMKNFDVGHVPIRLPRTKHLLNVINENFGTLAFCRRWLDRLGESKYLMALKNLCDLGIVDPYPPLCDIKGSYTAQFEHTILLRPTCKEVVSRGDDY
Experimental: as §1, §2

pIC50 (human MetAP2): 7.96
pIC50 (human MetAP1): < 4.52
pIC50 (mouse MetAP2): 7.44
Structure (SMILES): NC(=O)NCc1cccc(Oc2c[nH]nc2-c2ccc(F)cc2)c1 [Example 1, [3-[[3-(4-Fluorophenyl)-1H-pyrazol-4-yl]oxy]phenyl]methylurea]
weight loss compared to the vehicle group (obese DIO mice; day 7): about 6%
weight loss compared to the vehicle group (obese DIO mice; day 14): ~10%
weight loss compared to the vehicle group (obese DIO mice; day 21): ~14%
